Measured values published in US20250101023A1, “HETEROARYL DERIVATIVE AND USES THEREOF” (IUCF-HYU (INDUSTRY-UNIVERSITY COOPERATION FOUNDATION …, priority 2022, published 2025).

Legend:
DDR1 = DDR1 (Homo sapiens (Human), UniProt Q08345); experiment: Kinome-wide profiling; assay type: biochemical; conditions: read-out: % Residual Activity (mean)
NEK5 = NEK5 (Homo sapiens (Human), UniProt Q6P3R8); experiment: Kinome-wide profiling; assay type: biochemical; conditions: read-out: % Residual Activity (mean)
CAMK1a = CAMK1a (Homo sapiens (Human), UniProt Q14012); experiment: Kinome-wide profiling; assay type: biochemical; conditions: read-out: % Residual Activity (mean)
CDK9/cyclin K = CDK9/cyclin K (Homo sapiens (Human), UniProt P50750); experiment: Kinome-wide profiling; assay type: biochemical; conditions: read-out: % Residual Activity (mean)
SGK1 = SGK1 (Homo sapiens (Human), UniProt O00141); experiment: Kinome-wide profiling; assay type: biochemical; conditions: read-out: % Residual Activity (mean)
TESK1 = TESK1 (Homo sapiens (Human), UniProt Q15569); experiment: Kinome-wide profiling; assay type: biochemical; conditions: read-out: % Residual Activity (mean)
NEK1 = NEK1 (Homo sapiens (Human), UniProt Q96PY6); experiment: Kinome-wide profiling; assay type: biochemical; conditions: read-out: % Residual Activity (mean)
NEK4 = NEK4 (Homo sapiens (Human), UniProt P51957); experiment: Kinome-wide profiling; assay type: biochemical; conditions: read-out: % Residual Activity (mean)
WNK3 = WNK3 (Homo sapiens (Human), UniProt Q9BYP7); experiment: Kinome-wide profiling; assay type: biochemical; conditions: read-out: % Residual Activity (mean)
CLK4 = CLK4 (Homo sapiens (Human), UniProt Q9HAZ1); experiment: Kinome-wide profiling; assay type: biochemical; conditions: read-out: % Residual Activity (mean)
SIK2 = SIK2 (Homo sapiens (Human), UniProt Q9H0K1); experiment: Kinome-wide profiling; assay type: biochemical; conditions: read-out: % Residual Activity (mean)
RON/MST1R = RON/MST1R (Homo sapiens (Human), UniProt Q04912); experiment: Kinome-wide profiling; assay type: biochemical; conditions: read-out: % Residual Activity (mean)
CDK4/cyclin D2 = CDK4/cyclin D2 (Homo sapiens (Human), UniProt P11802); experiment: Kinome-wide profiling; assay type: biochemical; conditions: read-out: % Residual Activity (mean)
CDK1/cyclin A = CDK1/cyclin A (Homo sapiens (Human), UniProt P06493); experiment: Kinome-wide profiling; assay type: biochemical; conditions: read-out: % Residual Activity (mean)
CDK14/cyclin Y (PFTK1) = CDK14/cyclin Y (PFTK1) (Homo sapiens (Human), UniProt O94921); experiment: Kinome-wide profiling; assay type: biochemical; conditions: read-out: % Residual Activity (mean)
DAPK2 = DAPK2 (Homo sapiens (Human), UniProt Q9UIK4); experiment: Kinome-wide profiling; assay type: biochemical; conditions: read-out: % Residual Activity (mean)
JNK2 = JNK2 (Homo sapiens (Human), UniProt P45984); experiment: Kinome-wide profiling; assay type: biochemical; conditions: read-out: % Residual Activity (mean)
PLK3 = PLK3 (Homo sapiens (Human), UniProt Q9H4B4); experiment: Kinome-wide profiling; assay type: biochemical; conditions: read-out: % Residual Activity (mean)
[1] = Liver microsomal metabolic stability; assay type: in vitro ADME
Protocol: 5 derivatives were evaluated for in vitro metabolic stability in liver microsomes from three different species (human, dog, mouse) and for inhibitory activity against 5 representative cytochrome P450 enzymes (CYPs)(Table 3). In terms of liver microsomal stability, the 2′-pyridyl group is more suitable than the α-methyl-4′-pyridyl group as the terminal aromatic group at position 6, and the aminopyrimidyl group is better than the aminopyridyl group as a substituent at position 2.

STK32B/YANK2 = STK32B/YANK2 (Homo sapiens (Human), UniProt Q9NY57); experiment: Kinome-wide profiling; assay type: biochemical; conditions: read-out: % Residual Activity (mean)
TAOK3/JIK = TAOK3/JIK (Homo sapiens (Human), UniProt Q9H2K8); experiment: Kinome-wide profiling; assay type: biochemical; conditions: read-out: % Residual Activity (mean)
P38a/MAPK14 = P38a/MAPK14 (Homo sapiens (Human), UniProt Q16539); experiment: Kinome-wide profiling; assay type: biochemical; conditions: read-out: % Residual Activity (mean)
ULK1 = ULK1 (Homo sapiens (Human), UniProt O75385); experiment: Kinome-wide profiling; assay type: biochemical; conditions: read-out: % Residual Activity (mean)
STK21/CIT = STK21/CIT (Homo sapiens (Human), UniProt O14578); experiment: Kinome-wide profiling; assay type: biochemical; conditions: read-out: % Residual Activity (mean)
PKCmu/PRKD1 = PKCmu/PRKD1 (Homo sapiens (Human), UniProt Q15139); experiment: Kinome-wide profiling; assay type: biochemical; conditions: read-out: % Residual Activity (mean)
ABL2/ARG = ABL2/ARG (Homo sapiens (Human), UniProt P42684); experiment: Kinome-wide profiling; assay type: biochemical; conditions: read-out: % Residual Activity (mean)
LIMK2 = LIMK2 (Homo sapiens (Human), UniProt P53671); experiment: Kinome-wide profiling; assay type: biochemical; conditions: read-out: % Residual Activity (mean)
NEK11 = NEK11 (Homo sapiens (Human), UniProt Q8NG66); experiment: Kinome-wide profiling; assay type: biochemical; conditions: read-out: % Residual Activity (mean)
CK1g2 = CK1g2 (Homo sapiens (Human), UniProt P78368); experiment: Kinome-wide profiling; assay type: biochemical; conditions: read-out: % Residual Activity (mean)
PKG2/PRKG2 = PKG2/PRKG2 (Homo sapiens (Human), UniProt Q13237); experiment: Kinome-wide profiling; assay type: biochemical; conditions: read-out: % Residual Activity (mean)
MLCK/MYLK = MLCK/MYLK (Homo sapiens (Human), UniProt Q15746); experiment: Kinome-wide profiling; assay type: biochemical; conditions: read-out: % Residual Activity (mean)
TGFBR2 = TGFBR2 (Homo sapiens (Human), UniProt P37173); experiment: Kinome-wide profiling; assay type: biochemical; conditions: read-out: % Residual Activity (mean)
EPHA7 = EPHA7 (Homo sapiens (Human), UniProt Q15375); experiment: Kinome-wide profiling; assay type: biochemical; conditions: read-out: % Residual Activity (mean)
TAK1 = TAK1 (Homo sapiens (Human), UniProt O43318); experiment: Kinome-wide profiling; assay type: biochemical; conditions: read-out: % Residual Activity (mean)
FGFR4 = FGFR4 (Homo sapiens (Human), UniProt P22455); experiment: Kinome-wide profiling; assay type: biochemical; conditions: read-out: % Residual Activity (mean)

Chain of MLCK/MYLK (Q15746 whole entry): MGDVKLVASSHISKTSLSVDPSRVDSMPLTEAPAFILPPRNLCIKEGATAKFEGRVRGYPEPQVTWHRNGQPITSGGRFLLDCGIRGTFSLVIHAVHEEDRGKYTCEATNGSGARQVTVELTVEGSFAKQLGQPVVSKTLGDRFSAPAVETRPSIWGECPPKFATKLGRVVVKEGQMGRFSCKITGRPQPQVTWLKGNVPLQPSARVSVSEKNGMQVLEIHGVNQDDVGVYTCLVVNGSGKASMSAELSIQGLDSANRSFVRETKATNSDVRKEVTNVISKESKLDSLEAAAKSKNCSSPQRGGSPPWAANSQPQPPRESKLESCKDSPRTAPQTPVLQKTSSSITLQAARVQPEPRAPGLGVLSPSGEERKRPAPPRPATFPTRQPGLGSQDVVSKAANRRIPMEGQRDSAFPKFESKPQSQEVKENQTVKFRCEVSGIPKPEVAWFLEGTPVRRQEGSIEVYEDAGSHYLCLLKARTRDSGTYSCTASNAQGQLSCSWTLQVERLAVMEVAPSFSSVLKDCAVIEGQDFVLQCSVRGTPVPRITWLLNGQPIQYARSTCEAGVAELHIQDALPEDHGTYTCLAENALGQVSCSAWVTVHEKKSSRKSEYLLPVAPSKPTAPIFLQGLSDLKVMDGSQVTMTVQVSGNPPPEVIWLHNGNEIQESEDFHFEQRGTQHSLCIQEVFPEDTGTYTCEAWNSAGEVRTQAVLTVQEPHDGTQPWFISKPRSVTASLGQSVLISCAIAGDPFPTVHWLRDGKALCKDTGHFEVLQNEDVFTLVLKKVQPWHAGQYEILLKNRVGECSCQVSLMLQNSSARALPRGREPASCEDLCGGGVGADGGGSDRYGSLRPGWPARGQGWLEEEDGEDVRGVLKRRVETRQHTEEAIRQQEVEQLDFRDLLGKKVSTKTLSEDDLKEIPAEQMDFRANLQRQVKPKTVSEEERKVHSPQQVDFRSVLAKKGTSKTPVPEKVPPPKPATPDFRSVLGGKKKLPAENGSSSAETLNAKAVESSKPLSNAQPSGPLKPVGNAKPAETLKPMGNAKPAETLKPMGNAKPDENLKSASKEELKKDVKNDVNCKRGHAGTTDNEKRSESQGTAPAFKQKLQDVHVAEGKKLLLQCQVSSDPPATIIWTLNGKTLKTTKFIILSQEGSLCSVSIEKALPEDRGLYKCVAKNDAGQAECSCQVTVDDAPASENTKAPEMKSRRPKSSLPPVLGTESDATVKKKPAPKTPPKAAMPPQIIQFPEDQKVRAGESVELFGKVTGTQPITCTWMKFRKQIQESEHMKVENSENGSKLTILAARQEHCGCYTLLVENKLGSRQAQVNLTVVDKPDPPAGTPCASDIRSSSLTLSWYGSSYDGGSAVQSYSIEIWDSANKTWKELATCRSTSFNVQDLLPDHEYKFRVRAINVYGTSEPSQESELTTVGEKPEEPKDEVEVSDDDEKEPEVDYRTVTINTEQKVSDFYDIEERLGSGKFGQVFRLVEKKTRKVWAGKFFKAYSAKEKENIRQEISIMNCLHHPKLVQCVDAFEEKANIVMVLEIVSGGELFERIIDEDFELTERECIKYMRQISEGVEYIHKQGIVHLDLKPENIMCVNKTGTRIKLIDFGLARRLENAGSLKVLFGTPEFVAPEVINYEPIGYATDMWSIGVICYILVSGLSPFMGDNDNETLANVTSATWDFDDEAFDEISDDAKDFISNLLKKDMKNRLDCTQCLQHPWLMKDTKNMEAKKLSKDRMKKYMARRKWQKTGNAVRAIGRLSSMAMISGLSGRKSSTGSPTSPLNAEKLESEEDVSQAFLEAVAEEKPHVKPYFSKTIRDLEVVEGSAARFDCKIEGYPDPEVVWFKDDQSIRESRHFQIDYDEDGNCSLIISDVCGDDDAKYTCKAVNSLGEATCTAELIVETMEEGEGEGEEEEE
Chain of WNK3 (Q9BYP7 whole entry): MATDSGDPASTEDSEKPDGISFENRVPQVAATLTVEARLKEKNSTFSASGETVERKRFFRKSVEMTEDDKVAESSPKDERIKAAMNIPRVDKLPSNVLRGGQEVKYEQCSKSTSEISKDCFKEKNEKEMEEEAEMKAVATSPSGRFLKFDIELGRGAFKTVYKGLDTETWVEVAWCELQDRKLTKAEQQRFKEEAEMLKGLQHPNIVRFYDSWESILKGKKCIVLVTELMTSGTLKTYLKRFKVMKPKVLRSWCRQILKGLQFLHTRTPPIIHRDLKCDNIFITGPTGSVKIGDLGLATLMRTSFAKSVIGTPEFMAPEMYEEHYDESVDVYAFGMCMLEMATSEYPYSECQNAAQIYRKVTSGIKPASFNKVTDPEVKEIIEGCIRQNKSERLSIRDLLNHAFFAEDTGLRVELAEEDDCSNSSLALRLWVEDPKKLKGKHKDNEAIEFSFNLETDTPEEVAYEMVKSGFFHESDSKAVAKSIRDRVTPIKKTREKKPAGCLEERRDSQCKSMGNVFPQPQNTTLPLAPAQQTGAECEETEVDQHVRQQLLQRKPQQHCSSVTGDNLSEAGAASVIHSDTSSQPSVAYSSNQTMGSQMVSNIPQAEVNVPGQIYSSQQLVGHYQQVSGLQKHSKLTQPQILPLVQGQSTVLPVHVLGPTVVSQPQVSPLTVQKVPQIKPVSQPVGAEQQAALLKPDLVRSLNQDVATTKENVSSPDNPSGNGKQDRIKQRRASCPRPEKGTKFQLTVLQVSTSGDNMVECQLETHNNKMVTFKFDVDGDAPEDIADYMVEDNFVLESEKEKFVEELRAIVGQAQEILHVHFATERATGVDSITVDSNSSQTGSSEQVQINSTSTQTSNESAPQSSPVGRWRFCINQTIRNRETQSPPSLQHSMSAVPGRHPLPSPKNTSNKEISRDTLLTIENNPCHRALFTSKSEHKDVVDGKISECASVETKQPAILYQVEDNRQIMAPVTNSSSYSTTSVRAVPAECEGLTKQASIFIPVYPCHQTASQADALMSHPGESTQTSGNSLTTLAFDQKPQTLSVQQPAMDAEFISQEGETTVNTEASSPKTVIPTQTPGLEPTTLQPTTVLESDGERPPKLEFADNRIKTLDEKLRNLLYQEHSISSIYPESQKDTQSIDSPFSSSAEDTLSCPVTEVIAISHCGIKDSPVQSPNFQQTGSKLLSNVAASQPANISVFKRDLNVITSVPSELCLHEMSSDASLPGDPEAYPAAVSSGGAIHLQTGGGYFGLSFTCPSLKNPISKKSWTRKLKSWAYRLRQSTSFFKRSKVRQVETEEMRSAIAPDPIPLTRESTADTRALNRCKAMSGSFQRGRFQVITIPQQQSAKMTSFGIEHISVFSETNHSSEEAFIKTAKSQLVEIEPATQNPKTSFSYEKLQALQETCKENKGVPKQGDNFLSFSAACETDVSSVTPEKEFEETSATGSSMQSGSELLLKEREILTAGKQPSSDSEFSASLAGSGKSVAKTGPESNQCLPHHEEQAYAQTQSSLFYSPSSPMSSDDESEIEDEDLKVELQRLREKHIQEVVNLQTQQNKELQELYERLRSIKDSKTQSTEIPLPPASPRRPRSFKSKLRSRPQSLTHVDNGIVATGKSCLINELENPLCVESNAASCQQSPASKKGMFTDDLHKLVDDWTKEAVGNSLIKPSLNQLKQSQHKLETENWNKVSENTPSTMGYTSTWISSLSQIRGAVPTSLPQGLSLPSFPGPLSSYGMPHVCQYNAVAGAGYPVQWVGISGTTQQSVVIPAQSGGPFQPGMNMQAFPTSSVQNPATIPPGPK
Chain of CDK1/cyclin A (P06493 whole entry): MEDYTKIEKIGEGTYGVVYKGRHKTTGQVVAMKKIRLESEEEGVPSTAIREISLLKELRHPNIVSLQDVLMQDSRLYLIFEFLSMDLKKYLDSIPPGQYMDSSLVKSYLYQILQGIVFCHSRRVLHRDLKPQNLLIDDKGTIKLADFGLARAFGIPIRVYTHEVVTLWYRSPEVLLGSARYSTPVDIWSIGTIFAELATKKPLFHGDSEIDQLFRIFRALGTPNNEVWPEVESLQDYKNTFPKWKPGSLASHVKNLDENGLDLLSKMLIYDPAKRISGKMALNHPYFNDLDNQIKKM
Chain of CDK1/cyclin A (P20248 whole entry partner): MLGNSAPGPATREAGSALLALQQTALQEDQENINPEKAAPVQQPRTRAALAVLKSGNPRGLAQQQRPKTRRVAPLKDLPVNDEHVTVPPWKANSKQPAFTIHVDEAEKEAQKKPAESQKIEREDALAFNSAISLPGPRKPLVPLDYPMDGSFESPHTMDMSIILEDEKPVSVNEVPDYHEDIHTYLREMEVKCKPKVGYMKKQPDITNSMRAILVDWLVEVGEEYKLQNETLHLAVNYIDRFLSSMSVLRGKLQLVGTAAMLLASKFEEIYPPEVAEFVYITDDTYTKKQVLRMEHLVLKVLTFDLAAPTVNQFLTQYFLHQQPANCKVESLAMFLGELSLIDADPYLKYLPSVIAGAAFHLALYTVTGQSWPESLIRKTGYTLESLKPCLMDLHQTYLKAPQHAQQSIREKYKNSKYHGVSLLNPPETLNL
Chain of CDK4/cyclin D2 (P11802 whole entry): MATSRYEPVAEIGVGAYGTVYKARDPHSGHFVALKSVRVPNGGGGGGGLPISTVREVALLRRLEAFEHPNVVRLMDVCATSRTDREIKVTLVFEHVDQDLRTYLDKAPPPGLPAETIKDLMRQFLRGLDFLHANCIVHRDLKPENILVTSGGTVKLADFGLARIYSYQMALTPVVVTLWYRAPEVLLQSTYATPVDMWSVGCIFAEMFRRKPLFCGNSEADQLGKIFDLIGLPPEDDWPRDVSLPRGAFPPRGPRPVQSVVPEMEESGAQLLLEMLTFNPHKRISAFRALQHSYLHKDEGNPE
Chain of CDK4/cyclin D2 (P30279 whole entry partner): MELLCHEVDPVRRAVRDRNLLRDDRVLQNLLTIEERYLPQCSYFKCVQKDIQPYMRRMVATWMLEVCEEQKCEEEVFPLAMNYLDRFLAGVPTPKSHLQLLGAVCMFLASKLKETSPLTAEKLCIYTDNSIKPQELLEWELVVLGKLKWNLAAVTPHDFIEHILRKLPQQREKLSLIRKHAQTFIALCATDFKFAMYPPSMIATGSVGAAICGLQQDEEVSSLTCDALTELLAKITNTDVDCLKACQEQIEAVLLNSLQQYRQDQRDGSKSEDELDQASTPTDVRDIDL

## CCn1cnc2c(NCc3ccc(-c4ccccn4)nc3)nc(-c3ccc(N)nc3)nc21 [Example 53, N-([2,2′-bipyridin]-5-ylmethyl)-2-(6-aminopyridin-3-yl)-9-ethyl-9H-purin-6-amine]
DDR1
  remaining activity at 10 µM: 50.2%
NEK5
  remaining activity at 10 µM: 83.8%
CAMK1a
  remaining activity at 10 µM: 34%
CDK9/cyclin K
  remaining activity at 10 µM: 1.07%
SGK1
  remaining activity at 10 µM: 84.9%
TESK1
  remaining activity at 10 µM: 93.1%
NEK1
  remaining activity at 10 µM: 92.3%
NEK4
  remaining activity at 10 µM: 95.8%
WNK3
  remaining activity at 10 µM: 74.5%
CLK4
  remaining activity at 10 µM: 28.7%
SIK2
  remaining activity at 10 µM: 35.9%
RON/MST1R
  remaining activity at 10 µM: 86.8%
CDK4/cyclin D2
  remaining activity at 10 µM: 21.8%
CDK1/cyclin A
  remaining activity at 10 µM: 4.65%
CDK14/cyclin Y (PFTK1)
  remaining activity at 10 µM: 14%
DAPK2
  remaining activity at 10 µM: 85.7%
JNK2
  remaining activity at 10 µM: 61.7%
PLK3
  remaining activity at 10 µM: 94.4%
[1]; dog liver microsomes
  Liver microsomal metabolic stability (% remaining amount) Dog: 46.2%
[1]; human liver microsomes
  Liver microsomal metabolic stability (% remaining amount) Human: 64.8%
[1]; mouse liver microsomes
  Liver microsomal metabolic stability (% remaining amount) Mouse: 49.9%
STK32B/YANK2
  remaining activity at 10 µM: 57.6%
TAOK3/JIK
  remaining activity at 10 µM: 23.1%
P38a/MAPK14
  remaining activity at 10 µM: 84.2%
ULK1
  remaining activity at 10 µM: 70.3%
STK21/CIT
  remaining activity at 10 µM: 97.9%
PKCmu/PRKD1
  remaining activity at 10 µM: 70.3%
ABL2/ARG
  remaining activity at 10 µM: 56.1%
LIMK2
  remaining activity at 10 µM: 76.5%
NEK11
  remaining activity at 10 µM: 94.2%
CK1g2
  remaining activity at 10 µM: 27%
PKG2/PRKG2
  remaining activity at 10 µM: 99.5%
MLCK/MYLK
  remaining activity at 10 µM: 63.4%
TGFBR2
  remaining activity at 10 µM: 94.5%
EPHA7
  remaining activity at 10 µM: 31.3%
TAK1
  remaining activity at 10 µM: 98.2%
FGFR4
  remaining activity at 10 µM: 87.4%
